In patent publication US12514828B2, “Methods of permeabilizing the blood brain barrier” (UNIVERSITY OF SOUTHERN CALIFORNIA, priority 2018, dated 2026):
“Also recorded” adds a separate entry of the source.

What was measured:
GL261 mouse glioma [1] = assay: NEO100-mediated human CAR T cell delivery to brain and tumor (CD3 IHC); type: in vivo
Procedure: 2-million CD19 and Lym-1 human CAR T cells that were suspended in 0.9% saline working solution to be used for the IV injection with and without intracardiac NEO100.
Preparation of the working solution for intracardiac injection of NEO100: 3% NEO100 suspended in 0.9% saline.
40 μl 3% NEO100 in saline was injected slowly to complete intracardiac application. Direct cell injection into the heart could cause local microinfarctions if the cells are clumpy during injection, hemopericardium and death as a consequence. This is why ultrasound guided injections with a small 30 G needle is important to minimize these potential adverse effects, (1) enabling the visualization of the needle tract to ensure that the needle enters the left ventricle only, and (2) subsequent monitoring of the heart through not only ECG but visualization of heart wall function after the injection. The fine gauge of the needle ensures that the cells are not clumpy when the cells are injected through intracardiac puncture.
Immediate after the completion of NEO100 injection, 2 million human CAR T cells in 40 μl PBS were injected through tail vein catheter that pre-primed with saline solution. To avoid the possible adverse effects mentioned above by direct cell injection through intracardiac application, we set up 2-step procedures for the study.
Step 1: 40 μl 3% NEO100 in saline was injected slowly to complete intracardiac application. This procedure allows NEO100 to exert the function of BBB disruption.
Step 2: 2-million CAR T cells were injected by IV through tail vein catheter.
Brain Perfusion—In order to rule out the residue left over inside the blood vessel after euthanizing, the testing animals were perfused by 10 ml 0.9% normal saline solution through left ventricle to flush out the blood. […] Confocal Imaging—[…] fresh frozen sections were made by cryostasis machine and pasted on microslide. Coverslip was mounted on the brain section by DAPI mounting medium before Confocal examination. […]

[2] = test system: recurrent malignant gliomas; details: intranasal delivery, cited from earlier work
GL261 mouse glioma [3] = assay: Anti-mouse PD-1 antibody therapeutic efficacy (survival) in intracranial syngeneic mouse glioma; type: in vivo, C57 BL/6 mice
Procedure: 100,000 GL261 mouse glioma cells were injected intracranially to immune competent mice, C57 BL/6. 7 days post the injection, the mice were randomly divided into 4 experimental groups, and initiated the treatment at the same day. • Group 1. Control: IV and Intracardiac injection of 40 μl Saline Solution (5). • Group 2. Antibody treated mice: IV 40 μl Anti-mouse PD1 antibody at the dose of 2.5 • mg/kg (5). • Group 3. NEO100 treated mice: Intracardiac injection of 40 μl 5% NEO100 (5). • Group 4. Combination of NEO100 and antibody treated mice: Intracardiac 40 μl 5% NEO100, followed by IV 40 μl Anti-PD1 antibody at the dose of 2.5 mg/kg (6).
Animal survival data were plotted using the Kaplan-Meier method. One-way ANOVA was used for the overall test for differences. Grouped comparisons were performed using the Tukey method of adjusting for multiple comparisons. Logrank (Mantel-Cox) test was applied for the comparison of survival curves. A statistical evaluation result of p<0.05 was considered significant.

[4] = test system: Raji's-Luc/GFP human B-cell lymphoma cells; assay: Lym-1 CAR T cell delivery in intracranial Raji lymphoma xenografts (survival); type: in vivo, NSG mice; details: IV Lym-1 CAR T (5×10e6) + IC NEO100 (0.3% v/v=492 μM); control mice died within 15-20 days; P=0.0029
Procedure: 50,000 (5×10^4) human B-cell lymphoma cells, Raji's-Luc/GFP, were injected intracranially into NSG mice.
5 days post the tumor cells injection, the optical imaging was performed to confirm the tumor uptake (100% tumor uptake).
There were 3 experimental groups: (1) Control; (2) IV CAR T (5×10e6); (3) IV CAR T (5×10e6)+IC NEO100 (0.3% v/v=492 μM)
Body weight was monitored for the physical condition of the mice during the treatment. Tumor growth was monitored by optical imaging.

[5] = test system: Madin-Darby Canine Kidney (MDCK) cells; assay: In vitro BBB tight junction model (Transwell, TEER, fluorescence antibody); type: cell-based
Procedure: The labelled components are Transwell chemotaxis chamber; upper chamber; porous membrane and lower chamber. Transwell culture chambers (pore size: 0.8 μm). Madin-Darby Canine Kidney (MDCK) cells are epithelial cells. TEER: transepithelial/transendothelial electrical resistance. Fluorescence Ab: Alexa Fluo® 488; donkey anti-rat IgG (H+L). Fluorescence was measured in the lower chamber in about 120 minutes.

U-87 human glioma cells = assay: Intracranial glioma model in athymic nu/nu mice (survival); type: in vivo; details: applicant's prior experience; untreated mice about four weeks
Procedure: Male athymic nu/nu mice (6-8 weeks old) will be employed for this research. Rodent subcutaneous/intracranial glioma model can be established as follows. Six to eight week old athymic nu/nu mice will be anesthetized with intraperitoneal injections of ketamine (80 mg/kg) and xylazine (10 mg/kg). For the intracranial glioma model, the mice are placed into a stereotactic head frame (Harvard Apparatus), and local anesthetic (0.2 cc of 0.25% xylocaine) is injected into the right frontal scalp. A knife blade is used to make a small incision, and a drill bit is used to make a small opening in the right frontal skull at the level of the coronal suture. Glioma cells (1×10^5 cells/10 μl), for example, U-87 human glioma cells, will be loaded into a calibrated Hamilton syringe. The needle tip will be placed precisely into the right frontal lobe of the […], and cells will be slowly injected using a control push from the Hamilton syringe. After the injection is finished, the syringe and needle will be removed, and the wound closed. […]
Brains will be harvested, and tumor size determined. […]

Procedure for blood-brain-barrier: Brain Perfusion—Before euthanizing, the testing animals was perfused by 0.9% normal saline solution through left ventricle. The brain was removed and buried in OCT, and stored in −80° C. for further analysis.
Ultrasound Guided Intracardiac Puncture—Briefly, the animals were anesthetized using 2% isoflurane gas and fixed on the platform for intracardiac puncture. To penetrate the syringe needle into intercoastal space promptly through skin and muscle layers into the left ventricle under the guidance of ultrasound imaging. An indication of successful insertion of the needle into the left ventricle is the reflux of fresh arterial blood (pink color in contrast to dark red venous blood) into the syringe.
The extravasation of stained albumin from circulation could be visualized.
Different concentration of NE0100 (40 μ1 in 0.9% saline) was tested through intracardiac puncture, followed by immediate intravenous application of 2% Evans Blue (40 μ1 in volume). The brain was removed after perfusion.
Experimental groups include: • IC 2% EB only • IC 20% ethanol+2% EB • IC 20% ethanol+2% EB+5% NEO100 • IC 20% ethanol+5% NEO100, followed by 2% EB tail vein injection • IV 20% ethanol+2% EB+5% NEO100 • IV 20% ethanol+2% EB
The immune competent C57 BL/6 mice was injected with 5% NEO100 (v/v) through intracardiac puncture (IC), followed by intravenous injection of 2% Evans Blue at different time points, such as 0, 5 min, 15 min, 30 min, 1-hour, 2-hour, 3-hour, and 4 hours, post the IC injection.
Intracardiac Injection (IC): 5% NEO100. • 2. Followed by intravenous injection (IV) of 2% EB at different times. • 3. The testing animals were euthanized one hour after the IV injection.

SMILES	severe adverse effect or animal death (GL261 mouse glioma [1]; 3% NEO100 intracardiac injection)	penetration of human CAR T cells (anti-CD19 and Lym-1) into the tumor formed inside the brain (GL261 mouse glioma [1]; 40 μl 3% NEO100 intracardiac, then 2 million CAR T cells IV, compared to IV only, 6 h)	CD3 positive cells in the normal parts of brain (GL261 mouse glioma [1]; intracardiac NEO100 plus IV CAR T cells vs IV injection only)	patients achieving 6 month progression-free period ([2]; 140 treated patients)	disease response [2]	side effects from the treatment [2]	disease remission ([2]; several patients)	animal survival, combination (GL261 mouse glioma [3]; 40 μl 5% NEO100 intracardiac followed by anti-PD1 antibody 2.5 mg/kg IV)	animal survival, single agent (GL261 mouse glioma [3]; NEO100 alone (40 μl 5% intracardiac) or anti-PD1 alone (2.5 mg/kg IV))	animal survival (Kaplan Meier) [4]	penetration of fluorescence labelled antibody across in vitro BBB model ([5]; Alexa Fluo 488 donkey anti-rat IgG, fluorescence in lower chamber at about 120 minutes)	TEER (transepithelial/transendothelial electrical resistance) ([5]; NEO100 2 mM)	disturbance of the BBB (Evans Blue uptake into brain) (blood-brain-barrier; NEO100 1:1000 dilution (6.5 mM 40 μl) intracardiac, then 2% Evans Blue IV)	dopamine delivery to the brain (blood-brain-barrier; intracardiac NEO100)	opening of the BBB for antibodies (blood-brain-barrier; intracardiac injection (equivalent to intra-arterial injection for mice))	tight junction in the brain (blood-brain-barrier; intracardiac injection of 5% NEO100 compared to normal brain)	safety of intraarterial administration (blood-brain-barrier; mouse, in vivo)	survival after implantation (U-87 human glioma cells)
C=C(C)[C@@H]1CC=C(CO)CC1 [NEO100, perillyl alcohol]	does not cause any severe adverse effect or animal death	greatly increase the penetration into the tumor	More CD3 positive cells were found in the normal parts of brain	50%	regression or stabilization of the disease	almost non-existent	≤ 3 years	still alive	all the controls were dead	survived	transiently allow labeled antibodies to transiently cross it; also recorded: enhanced penetration of fluorescence labelled antibody	decreased TEER	still effective to disturb the BBB	mediated dopamine delivery through the breached blood-brain-barrier	could open the BBB for antibodies	breached dramatically	safe to administer intraarterially	–
Cn1nnc2c(C(N)=O)ncn2c1=O [TMZ, temozolomide]	–	–	–	–	–	–	–	–	–	–	–	–	–	–	–	–	–	up to 8 weeks
